Source: US20220281848A1, “PYRAZOLE-SUBSTITUTED PYRROLIDINONES AS HERBICIDES” (FMC Corporation, priority 2019, published 2022)

Test system: plants
Assay: Test D pre-emergence, other plants of Tables D1 and D3
Type: in vivo
Conditions: preemergent, 20 DAA
In short: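 Damage was rated visually from 0 (none) to 100 (total), at 20 DAA for pre-emergence and 15 d for post-emergence. Plants grew from safener-treated seed in a glasshouse at 24/18° C. or 20/16° C. day/night, 65% humidity, watered twice daily.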

## CCn1nc([C@H]2CN(C)C(=O)[C@@H]2C(=O)Nc2cccc(F)c2F)c2cc(F)ccc21 [Compound 8]
Rate 15
  damage to plant (100=total damage to plant; 0=no damage to plant), ABUTH: 0
  damage to plant (100=total damage to plant; 0=no damage to plant), AMARE: 0
  damage to plant (100=total damage to plant; 0=no damage to plant), BIDPI: 0
  damage to plant (100=total damage to plant; 0=no damage to plant), BRAPL: 20
  damage to plant (100=total damage to plant; 0=no damage to plant), CYPES: 0
  damage to plant (100=total damage to plant; 0=no damage to plant), DIGSA: 10
  damage to plant (100=total damage to plant; 0=no damage to plant), ECHCG: 30
  damage to plant (100=total damage to plant; 0=no damage to plant), ELEIN: 0
  damage to plant (100=total damage to plant; 0=no damage to plant), EPHHL: 0
  damage to plant (100=total damage to plant; 0=no damage to plant), GLXMA: 0
  damage to plant (100=total damage to plant; 0=no damage to plant), IPOHE: 0
  damage to plant (100=total damage to plant; 0=no damage to plant), ORYSA: 0
  damage to plant (100=total damage to plant; 0=no damage to plant), PANMI: 0
  damage to plant (100=total damage to plant; 0=no damage to plant), SETFA: 10
  damage to plant (100=total damage to plant; 0=no damage to plant), SIDSP: 0
  damage to plant (100=total damage to plant; 0=no damage to plant), SORVU: 0
Rate 30
  damage to plant (100=total damage to plant; 0=no damage to plant), ABUTH: 0
  damage to plant (100=total damage to plant; 0=no damage to plant), AMARE: 0
  damage to plant (100=total damage to plant; 0=no damage to plant), BIDPI: 0
  damage to plant (100=total damage to plant; 0=no damage to plant), BRAPL: 70
  damage to plant (100=total damage to plant; 0=no damage to plant), CYPES: 0
  damage to plant (100=total damage to plant; 0=no damage to plant), DIGSA: 90
  damage to plant (100=total damage to plant; 0=no damage to plant), ECHCG: 90
  damage to plant (100=total damage to plant; 0=no damage to plant), ELEIN: 0
  damage to plant (100=total damage to plant; 0=no damage to plant), EPHHL: 0
  damage to plant (100=total damage to plant; 0=no damage to plant), GLXMA: 0
  damage to plant (100=total damage to plant; 0=no damage to plant), IPOHE: 0
  damage to plant (100=total damage to plant; 0=no damage to plant), ORYSA: 0
  damage to plant (100=total damage to plant; 0=no damage to plant), PANMI: 0
  damage to plant (100=total damage to plant; 0=no damage to plant), SETFA: 80
  damage to plant (100=total damage to plant; 0=no damage to plant), SIDSP: 0
Rate 60
  damage to plant (100=total damage to plant; 0=no damage to plant), ABUTH: 0
  damage to plant (100=total damage to plant; 0=no damage to plant), AMARE: 0
  damage to plant (100=total damage to plant; 0=no damage to plant), BIDPI: 0
  damage to plant (100=total damage to plant; 0=no damage to plant), BRAPL: 70
  damage to plant (100=total damage to plant; 0=no damage to plant), CYPES: 0
  damage to plant (100=total damage to plant; 0=no damage to plant), DIGSA: 100
  damage to plant (100=total damage to plant; 0=no damage to plant), ECHCG: 90
  damage to plant (100=total damage to plant; 0=no damage to plant), ELEIN: 0
  damage to plant (100=total damage to plant; 0=no damage to plant), EPHHL: 0
  damage to plant (100=total damage to plant; 0=no damage to plant), GLXMA: 0
  damage to plant (100=total damage to plant; 0=no damage to plant), IPOHE: 0
  damage to plant (100=total damage to plant; 0=no damage to plant), ORYSA: 0
  damage to plant (100=total damage to plant; 0=no damage to plant), PANMI: 0
  damage to plant (100=total damage to plant; 0=no damage to plant), SETFA: 70
  damage to plant (100=total damage to plant; 0=no damage to plant), SIDSP: 0
Rate 130
  damage to plant (100=total damage to plant; 0=no damage to plant), ABUTH: 0
  damage to plant (100=total damage to plant; 0=no damage to plant), AMARE: 0
  damage to plant (100=total damage to plant; 0=no damage to plant), BIDPI: 0
  damage to plant (100=total damage to plant; 0=no damage to plant), BRAPL: 80
  damage to plant (100=total damage to plant; 0=no damage to plant), CYPES: 0
  damage to plant (100=total damage to plant; 0=no damage to plant), DIGSA: 100
  damage to plant (100=total damage to plant; 0=no damage to plant), ECHCG: 90
  damage to plant (100=total damage to plant; 0=no damage to plant), ELEIN: 0
  damage to plant (100=total damage to plant; 0=no damage to plant), EPHHL: 0
  damage to plant (100=total damage to plant; 0=no damage to plant), GLXMA: 0
  damage to plant (100=total damage to plant; 0=no damage to plant), IPOHE: 0
  damage to plant (100=total damage to plant; 0=no damage to plant), ORYSA: 0
  damage to plant (100=total damage to plant; 0=no damage to plant), PANMI: 0
  damage to plant (100=total damage to plant; 0=no damage to plant), SETFA: 90
  damage to plant (100=total damage to plant; 0=no damage to plant), SIDSP: 0
  damage to plant (100=total damage to plant; 0=no damage to plant), SORVU: 10
Rate 250
  damage to plant (100=total damage to plant; 0=no damage to plant), ABUTH: 0
  damage to plant (100=total damage to plant; 0=no damage to plant), AMARE: 0
  damage to plant (100=total damage to plant; 0=no damage to plant), BIDPI: 0
  damage to plant (100=total damage to plant; 0=no damage to plant), BRAPL: 90
  damage to plant (100=total damage to plant; 0=no damage to plant), CYPES: 0
  damage to plant (100=total damage to plant; 0=no damage to plant), DIGSA: 100
  damage to plant (100=total damage to plant; 0=no damage to plant), ECHCG: 90
  damage to plant (100=total damage to plant; 0=no damage to plant), ELEIN: 0
  damage to plant (100=total damage to plant; 0=no damage to plant), EPHHL: 0
  damage to plant (100=total damage to plant; 0=no damage to plant), GLXMA: 0
  damage to plant (100=total damage to plant; 0=no damage to plant), IPOHE: 0
  damage to plant (100=total damage to plant; 0=no damage to plant), ORYSA: 0
  damage to plant (100=total damage to plant; 0=no damage to plant), PANMI: 0
  damage to plant (100=total damage to plant; 0=no damage to plant), SETFA: 100
  damage to plant (100=total damage to plant; 0=no damage to plant), SIDSP: 0
Rate 500
  damage to plant (100=total damage to plant; 0=no damage to plant), ABUTH: 0
  damage to plant (100=total damage to plant; 0=no damage to plant), AMARE: 0
  damage to plant (100=total damage to plant; 0=no damage to plant), BIDPI: 0
  damage to plant (100=total damage to plant; 0=no damage to plant), BRAPL: 100
  damage to plant (100=total damage to plant; 0=no damage to plant), CYPES: 0
  damage to plant (100=total damage to plant; 0=no damage to plant), DIGSA: 100
  damage to plant (100=total damage to plant; 0=no damage to plant), ECHCG: 100
  damage to plant (100=total damage to plant; 0=no damage to plant), ELEIN: 0
  damage to plant (100=total damage to plant; 0=no damage to plant), EPHHL: 70
  damage to plant (100=total damage to plant; 0=no damage to plant), GLXMA: 0
  damage to plant (100=total damage to plant; 0=no damage to plant), IPOHE: 0
  damage to plant (100=total damage to plant; 0=no damage to plant), ORYSA: 0
  damage to plant (100=total damage to plant; 0=no damage to plant), PANMI: 30
  damage to plant (100=total damage to plant; 0=no damage to plant), SETFA: 100
  damage to plant (100=total damage to plant; 0=no damage to plant), SIDSP: 0
